Test results as given in patent US20260167637A1, “NLRP3 INFLAMMASOME INHIBITOR AND USE THEREOF” (TransThera Sciences (Nanjing), Inc., priority 2022, published 2026).
Where two headings read alike, the source gives them in different places.

Assays:
THP-1 cell NLRP3 = molecular target: T1, THP-1 cell NLRP3 (Homo sapiens, UniProt Q96P20); experiment: Inhibitory activity against cell NLRP3 inflammasomes in THP-1 cells (LPS + nigericin, ELISA of supernatant); format: cell-based; details: PMA-differentiated THP-1 cells, LPS 500 ng/mL 3 h, compound 1 h, nigericin 30 min; human IL-10 (so in the source) in supernatant by ELISA
T1 construct: endogenous in cells; host or cells: THP-1 cells, PMA-differentiated, stimulated with LPS and nigericin
Method: Experimental Example 1: Assay for Inhibitory Activity of Compounds Disclosed Herein Against Cell NLRP3 Inflammasomes
Test substances: The compounds of the present disclosure, prepared according to the methods described in the examples.
THP-1 is an immortalized human […] cell line.
Instrument: microplate reader (made by PE)
Assay Method: 1. THP-1 cells were cultured in 1640 complete medium (500 mL of 1640+56 mL of FBS+560 μL of 1000×P/S+2 μL of mercaptoethanol), and cells at passages 3-20 were used.
2. Culture plate coating: 100 μL of polylysine solution was added to a 96-well cell culture plate. After 30 min of incubation at 37° C., the solution was discarded, and the plate was washed with PBS twice for later use.
3. Induction of THP-1 differentiation: THP-1 cells were resuspended in an appropriate amount of complete medium containing 10 ng/mL PMA to form a cell suspension with a density of 5×10^5 cells/mL. The suspension was added to the 96-well plate at 100 μL/well, and the plate was incubated overnight in a 37° C. carbon dioxide cell incubator for 16 h.
4. Stimulation of THP-1: • a. Serum-free THP-1 culture medium containing LPS was added, with the final concentration being 500 ng/mL. The plate was incubated in a 37° C. carbon dioxide cell incubator for 3 h. • b. Mother liquors of the compounds to be tested with gradient concentrations were prepared with DMSO, added to the cells, and well mixed. Dilution was finally performed in a 1:1000 ratio. The plate was incubated in a 37° C. carbon dioxide cell incubator for 1 h. • c. Nigericin was added to each well, with the final concentration being […]. The plate was incubated in a carbon dioxide cell incubator at 37° C. for 30 min. • d. The medium in the wells was transferred to a new culture plate, and after 5 min of centrifugation at 3000 rpm, the supernatant was transferred to a new 96-well plate. • e. The content of human […] in the collected cell culture supernatant samples was determined with a commercial ELISA kit by following the instructions.

[1] = Pharmacokinetic study in mice; format: in vivo, female C57BL/6J mice; details: female, C57BL/6J, mouse, plasma; for clearance: read-out: Cl—obs iv (clearance rate) (converted); for Vd: read-out: Vss iv (distribution volume); for bioavailability: po 10 mg/kg vs iv 5 mg/kg, read-out: F% (absolute bioavailability); for Tmax: median, read-out: Tmax po (time to peak plasma concentration); for Cmax: read-out: Cmax po (peak concentration)
Method: (§1) The compounds were prepared into solutions using a mixed vehicle composed of 5% dimethyl sulfoxide, 20% (30% solutol), and 75% normal saline. The compound solutions were intragastrically administered to female C57BL/6J mice at a dose of 10 mg/kg, and the blood collection time points were: 15 min, 30 min, 1 h, 2 h, 4 h, 6 h, 8 h, and 24 h.
as §1, with “intravenously injected into” for “intragastrically administered to”, “5” for “10”, “were: 5 min,” for “were:”
The samples to be tested were taken out from a −80° C. freezer, naturally thawed at room temperature, and then vortexed for 5 min.
Plasma samples of 10 μL from different individuals were accurately pipetted into 1.5 mL centrifuge tubes.
900 μL of a 100 ng/mL internal standard working solution (a solution of tolbutamide in acetonitrile) was added, and the mixture was well mixed.
After 5 min of vortexing, centrifugation was performed at 12,000 rpm for 5 min.
50 μL of the supernatant was accurately pipetted into a 96-well plate to which water was added in advance at 150 μL/well.
After 5 min of vortexing, LC-MS/MS analysis was performed.
The results of the test substance concentrations were output by Analyst 1.6.3 of AB Sciex.
Parameters such as mean, standard deviation, and coefficient of variation (excluding those output directly by Analyst 1.6.3) were calculated using Microsoft Excel. PK parameters were calculated using WinNonlin Phenoix 8.2 software NCA (Tmax was a median).

[2] = Stability in canine liver microsomes; format: in vitro ADME; details: dog, canine liver microsomes 0.5 mg protein/mL, 1 μM test substance, β-NADPH 1 mM, 37° C.; for half-life at 1 μM: read-out: Canine t1/2
Method: (§2) Experimental Example 2: Evaluation of Stability of Compounds Disclosed Herein in Liver Microsomes
(§3) Composition of experimental incubation system:
(§4) An appropriate amount of the compound was precisely weighed out and dissolved in DMSO to prepare a 10.0 mM stock solution. The 10.0 mM stock solution was diluted with DMSO to 1.0 mM, and then diluted with phosphate buffer (containing 3 mM MgCl2) to prepare a 10 μM test substance working solution for later use (DMSO content in the reaction system: 0.1%).
(§5) An appropriate amount of β-NADPH was precisely weighed out and then prepared into a 5 mM β-NADPH working solution using phosphate buffer (containing 3 mM MgCl2) for later use.
(§6) (1) The liver microsomes (20 mg protein/mL) were taken out from a −80° C. freezer and pre-incubated on a 37° C. water bath thermostatic oscillator for 3 min to thaw for later use.
(§7) (2) A mixed solution of the incubation system (without β-NADPH) was prepared according to “composition of experimental incubation system” described above, and pre-incubated on a 37° C. water bath thermostatic oscillator for 2 min.
(§8) (3) Control group (without β-NADPH): 10 μL of phosphate buffer (containing 3 mM MgCl2) and 40 μL of the mixed solution of the incubation system in step (2) were taken and mixed, and the mixture was vortexed for 30 s and mixed well, resulting in a total reaction volume of 50 μL; the sample was duplicated. The mixture was placed on a 37° C. water bath thermostatic oscillator for incubation, and timing was started, with termination time points set at 0 min and 60 min.
(§9) (4) Sample group: 10 μL of the β-NADPH solution (5 mM) and 40 μL of the mixed solution in step (2) were taken and mixed, resulting in a total reaction volume of 50 μL; the mixture was vortexed for 30 s and mixed well; the sample was duplicated. The mixture was placed on a 37° C. water bath thermostatic oscillator for incubation, and timing was started, with termination time points set at 0 min, 5 min, 10 min, 20 min, 30 min, and 60 min.
(§10) (5) The mixture was vortexed for 5 min and then centrifuged at 4000 rpm for 10 min.
(§11) (6) 50 μL of the supernatant was taken and added to 150 μL of water, and the resulting mixture was vortexed and mixed well before LC/MS/MS analysis.
(§12) The half-life (t1/2) and clearance rate (CL) were calculated using the following first-order kinetic formula
(§13) Notes: k denotes the slope of the logarithm of the remaining amount of a compound vs. time, and Vd denotes apparent volume of distribution.

[3] = Stability in rat liver microsomes; format: in vitro ADME; details: rat liver microsomes 0.5 mg protein/mL, 1 μM test substance, β-NADPH 1 mM, 37° C.; for half-life at 1 μM: read-out: Rat t1/2
Method: as §2, §3, §4, §5, §6, §7, §8, §9, §10, §11, §12, §13

[4] = iv 5 mg/kg, read-out: AUClast iv (0-24 h)
[5] = iv 5 mg/kg, read-out: tz1/2 iv (terminal half-life) (converted)
[6] = po 10 mg/kg, read-out: AUClast po (0-24 h)
[7] = po 10 mg/kg, read-out: tz1/2 po (terminal half-life) (converted)

T1 sequence (Q96P20 whole entry): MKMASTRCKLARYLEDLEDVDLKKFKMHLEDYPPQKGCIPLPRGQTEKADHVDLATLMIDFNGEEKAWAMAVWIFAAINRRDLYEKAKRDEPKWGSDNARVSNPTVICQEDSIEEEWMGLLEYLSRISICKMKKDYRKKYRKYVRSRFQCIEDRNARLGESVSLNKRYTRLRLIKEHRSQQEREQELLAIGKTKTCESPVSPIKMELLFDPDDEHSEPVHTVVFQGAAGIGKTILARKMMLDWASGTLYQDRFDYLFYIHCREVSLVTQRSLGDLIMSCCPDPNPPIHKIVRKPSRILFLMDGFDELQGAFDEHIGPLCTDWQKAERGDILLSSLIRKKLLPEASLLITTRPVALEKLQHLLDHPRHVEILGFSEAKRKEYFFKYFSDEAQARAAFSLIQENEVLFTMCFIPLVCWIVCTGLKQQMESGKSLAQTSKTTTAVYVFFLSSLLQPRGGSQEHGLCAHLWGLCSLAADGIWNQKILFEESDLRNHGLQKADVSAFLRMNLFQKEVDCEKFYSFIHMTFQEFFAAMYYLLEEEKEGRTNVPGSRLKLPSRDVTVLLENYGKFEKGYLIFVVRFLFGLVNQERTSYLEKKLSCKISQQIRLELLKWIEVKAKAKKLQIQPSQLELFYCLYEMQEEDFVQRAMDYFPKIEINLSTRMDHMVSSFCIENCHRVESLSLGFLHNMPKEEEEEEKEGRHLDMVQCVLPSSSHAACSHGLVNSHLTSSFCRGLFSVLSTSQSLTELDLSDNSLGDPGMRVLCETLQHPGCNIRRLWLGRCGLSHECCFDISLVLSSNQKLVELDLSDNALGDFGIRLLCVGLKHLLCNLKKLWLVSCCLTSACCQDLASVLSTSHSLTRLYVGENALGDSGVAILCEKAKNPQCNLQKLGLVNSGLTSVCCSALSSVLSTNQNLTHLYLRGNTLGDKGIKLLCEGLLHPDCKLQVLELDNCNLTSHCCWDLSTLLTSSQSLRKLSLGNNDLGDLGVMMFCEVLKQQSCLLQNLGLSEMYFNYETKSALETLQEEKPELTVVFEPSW

CC#Cc1ccc(-c2nnc(N[C@@H]3CCCN(CCO)C3)cc2C2CC2)c(O)c1 [Compound 44, (R)-2-(4-cyclopropyl-6-((1-(2-hydroxyethyl)piperidin-3-yl)amino)pyridazin-3-yl)-5-(prop-1-yn-1-yl)phenol]
IC50 (THP-1 cell NLRP3): 3.6 nM | AUC(0-t) [1, 4]: 8960 ng·h/mL | clearance ([1]; iv 5 mg/kg): 9.18 mL/min/kg | Vd ([1]; iv 5 mg/kg): 2.76 L/kg | half-life [1, 5]: 3.95 h | bioavailability [1]: 69.1% | Tmax ([1]; po 10 mg/kg): 0.5 h | AUC(0-t) [1, 6]: 12400 ng·h/mL | Cmax ([1]; po 10 mg/kg): 1710 ng/mL | half-life [1, 7]: 4.05 h

C#Cc1ccc(-c2nnc(N[C@@H]3CCCN(C)C3)cc2C2CCC2)c(O)c1 [Compound 82, (R)-5-ethynyl-2-(4-cyclobutyl-6-((1-methylpiperidin-3-yl)amino)pyridazin-3-yl)phenol]
IC50 (THP-1 cell NLRP3): 1.1 nM | microsomal CLint at 1 μM [2]: 8 µL/min/mg | half-life at 1 μM [2]: 2.88 h | microsomal CLint at 1 μM [3]: 10.4 µL/min/mg | half-life at 1 μM [3]: 2.22 h

C#Cc1ccc(-c2nnc(N[C@@H]3CCCC[C@H]3O)cc2C)c(O)c1 [Compound 83, 5-ethynyl-2-(6-(((1R,2R)-2-hydroxycyclohexyl)amino)-4-methylpyridazin-3-yl)phenol]
IC50 (THP-1 cell NLRP3): 6.1 nM | microsomal CLint at 1 μM [2]: 3.8 µL/min/mg | half-life at 1 μM [2]: 6.08 h | microsomal CLint at 1 μM [3]: 10 µL/min/mg | half-life at 1 μM [3]: 2.32 h

[2H]C([2H])([2H])N1CCC[C@@H](Nc2nnc(-c3ccc(C#C)cc3O)c(C)n2)C1 [Compound 86, (R)-5-ethynyl-2-(5-methyl-3-((1-(methyl-d3)piperidin-3-yl)amino)-1,2,4-triazin-6-yl)phenol]
IC50 (THP-1 cell NLRP3): 0.3 nM | microsomal CLint at 1 μM [2]: 6.6 µL/min/mg | half-life at 1 μM [2]: 3.5 h | microsomal CLint at 1 μM [3]: 7.8 µL/min/mg | half-life at 1 μM [3]: 2.97 h

[2H]C([2H])([2H])N1CCC[C@@H](Nc2nnc(-c3ccc(C#C)cc3O)n(C)c2=O)C1 [Compound 88, (R)-3-(4-ethynyl-2-hydroxyphenyl)-4-methyl-6-((1-(methyl-d3)piperidin-3-yl)amino)-1,2,4-triazin-5(4H)-one]
IC50 (THP-1 cell NLRP3): 1.2 nM | microsomal CLint at 1 μM [2]: 1.6 µL/min/mg | half-life at 1 μM [2]: 14.4 h | microsomal CLint at 1 μM [3]: 2 µL/min/mg | half-life at 1 μM [3]: 11.6 h

C#Cc1ccc(-c2nnc(N[C@@H]3CCCN(CC)C3)cc2C2CC2)c(O)c1 [Compound 90, (R)-2-(4-cyclopropyl-6-((1-ethylpiperidin-3-yl)amino)pyridazin-3-yl)-5-ethynylphenol]
IC50 (THP-1 cell NLRP3): 0.4 nM | AUC(0-t) [1, 4]: 4020 ng·h/mL | clearance ([1]; iv 5 mg/kg): 20.7 mL/min/kg | Vd ([1]; iv 5 mg/kg): 6.23 L/kg | half-life [1, 5]: 3.23 h | bioavailability [1]: 94.5% | Tmax ([1]; po 10 mg/kg): 2 h | AUC(0-t) [1, 6]: 7580 ng·h/mL | Cmax ([1]; po 10 mg/kg): 900 ng/mL | half-life [1, 7]: 3.33 h

C#Cc1ccc(-c2nnc(N[C@@H]3CCCN(CC)C3)c(=O)n2C2CC2)c(O)c1 [Compound 109, (R)-4-cyclopropyl-6-((1-ethylpiperidin-3-yl)amino)-3-(4-ethynyl-2-hydroxyphenyl)-1,2,4-triazin-5(4H)-one]
IC50 (THP-1 cell NLRP3): 16 nM

Cc1cc(N[C@@H]2CCCN(C)C2)nnc1-c1ccc(C#CC(F)(F)F)cc1O [Compound 111, (R)-2-(4-methyl-6-((1-methylpiperidin-3-yl)amino)pyridazin-3-yl)-5-(3,3,3-trifluoroprop-1-yn-1-yl)phenol]
IC50 (THP-1 cell NLRP3): 1.1 nM

C#Cc1ccc(-c2nnc(N[C@@H]3CCCN(C)C3)c(=O)n2C(C)C)c(O)c1 [Compound 112, (R)-3-(4-Ethynyl-2-hydroxyphenyl)-4-isopropyl-6-((1-methylpiperidin-3-yl)amino)-1,2,4-triazin-5(4H)-one]
IC50 (THP-1 cell NLRP3): 12 nM

C#Cc1ccc(-c2nnc(N[C@@H]3CCCNC3)cc2C)c(O)c1 [Compound 139, (R)-5-ethynyl-2-(4-methyl-6-(piperidin-3-ylamino)pyridazin-3-yl)phenol]
IC50 (THP-1 cell NLRP3): 1.1 nM

C#Cc1ccc(-c2nnc(N[C@@H]3CCCNC3)cc2C(F)(F)F)c(O)c1 [Compound 161, (R)-5-ethynyl-2-(6-(piperidin-3-ylamino)-4-trifluoromethylpyridazin-3-yl)phenol]
IC50 (THP-1 cell NLRP3): 9.9 nM

C#Cc1ccc(-c2nnc(N[C@@H]3CCCN(CCO)C3)cc2C(F)(F)F)c(O)c1 [Compound 163, (R)-5-ethynyl-2-(6-((1-(2-hydroxyethyl)piperidin-3-yl)amino)-4-trifluoromethylpyridazin-3-yl)phenol]
IC50 (THP-1 cell NLRP3): 1.1 nM

C#Cc1ccc(-c2nnc(N[C@@H]3CCCN(CCOC)C3)cc2C2CC2)c(O)c1 [Compound 240, (R)-2-(4-cyclopropyl-6-((1-(2-methoxyethyl)piperidin-3-yl)amino)pyridazin-3-yl)-5-ethynylphenol]
IC50 (THP-1 cell NLRP3): 1.3 nM
